How the values were obtained:
Assay type in all cases: in vivo
[1] = system: Ovariectomised adult female Sprague Dawley rats; test: Female rat sexual proceptivity test (time investigating male vs female stimulus)
Description: Ovariectomised adult female Sprague Dawley rats (180-200g, from Charles River) were housed in groups of 6 in a reversed lighting system of 12h light:dark (lights off 7.00-19.00h). Two weeks after ovariectomy they were used for sexual activity tests. The experiments started at least 5h into the dark period.
Tests were carried out in a circular arena of 90cm diameter, surrounded by a 30cm high wall. Two small cages with wire-mesh front (15x15cm) are fixed into the wall such that the front of the cage is «flush» with the wall and the 2 cages are opposite each other. They contained two stimuli animals: an intact sexually experienced male and a receptive female (ovariectomised, primed with 5µg oestradiol benzoate dissolved in corn oil and injected subcutaneously 48 hours before the test and with 0.5 mg of progesterone four hours before the test). Sexually naive test and control animals were used. Forty eight hours before the tests, both the test and control animals were primed with 5µg oestradiol benzoate. For animals used as positive controls, progesterone (0.5mg/0.1ml) was dissolved in corn oil and administered subcutaneously (s.c.), 4h before the test. Test and control animals were introduced one at a time for 10 minute periods into the arena. During the 10min test, the time that the test or positive control animal spent investigating each stimulus animal was noted. The arena was thoroughly cleaned between animals. The position of the male/female stimuli boxes was randomised between animals, in order to avoid place preference. The difference in the percentage of time spent investigating the male minus the female stimuli was calculated, out of the total time spent investigating stimuli animals. […]
Ovariectomised adult female Sprague Dawley rats (180-200g) were housed in groups of 5 in a reversed lighting system of 12h light:dark (lights off 5.00-17.00h). They were used for the experiments at least two weeks after ovariectomy. Forty eight hours before tests, the animals were primed with oestradiol benzoate (5µg/0.1ml in corn oil, s.c.). On day 1, progesterone (0.5mg/0.1ml, in corn oil, s.c.) was administered to one of the groups 4h before tests, as a positive control. […] The test lasted 10 minutes and was carried out as described before. The difference in the percentage of time spent investigating the male minus the female stimuli was calculated, out of the total time spent investigating stimuli animals. Animals were submitted to a test on day 1 and on day 15. […] On day 15 the test took place again, as described for day 1. […]

[2] = system: Female New Zealand rabbits; test: Pelvic nerve-stimulated female genital blood flow, anaesthetised rabbit model of sexual arousal
Description: Female New Zealand rabbits (~2.5kg) were pre-medicated with a combination of Medetomidine (Domitor®) 0.5ml/kg i.m., and Ketamine (Vetalar®) 0.25ml/kg i.m. whilst maintaining oxygen intake via a face mask. The rabbits were tracheotomised using a Portex™ uncuffed endotracheal tube 3 ID., connected to ventilator and maintained at a ventilation rate of 30-40 breaths per minute, with an approximate tidal volume of 18-20 ml, and a maximum airway pressure of 10 cm H2O. Anaesthesia was then switched to Isoflurane and ventilation continued with O2 at 21/min. The right marginal ear vein was cannulated using a 23G or 24G catheter, and Lactated Ringer solution perfused at 0.5ml/min. The rabbit was maintained at 3% Isoflurane during invasive surgery, dropping to 2% for maintenance anaesthesia.
The left groin area of the rabbit was shaved and a vertical incision was made approximately 5cm in length along the thigh. The femoral vein and artery were exposed, isolated and then cannulated with a PVC catheter (17G) for the infusion of drugs and compounds. Cannulation was repeated for the femoral artery, inserting the catheter to a depth of 10cm to ensure that the catheter reached the abdominal aorta. This arterial catheter was linked to a Gould system to record blood pressure. Samples for blood gas analysis were also taken via the arterial catheter. Systolic and diastolic pressures were measured, and the mean arterial pressure calculated using the formula (diastolic x2 + systolic) ö3. Heart rate was measured via the pulse oxymeter and Po-ne-mah data acquisition software system (Ponemah Physiology Platform, Gould Instrument Systems Inc). A ventral midline incision was made into the abdominal cavity. The incision was about 5cm in length just above the pubis. The fat and muscle was bluntly dissected away to reveal the hypogastric nerve which runs down the body cavity. It was essential to keep close to the side curve of the pubis wall in order to avoid damaging the femoral vein and artery which lie above the pubis. The sciatic and pelvic nerves lie deeper and were located after further dissection on the dorsal side of the rabbit. Once the sciatic nerve is identified, the pelvic nerve was easily located. The term pelvic nerve is loosely applied; anatomy books on the subject fail to identify the nerves in sufficient detail. However, stimulation of the nerve causes an increase in vaginal and clitoral blood flow, and innervation of the pelvic region. The pelvic nerve was freed away from surrounding tissue and a Harvard bipolar stimulating electrode was placed around the nerve. […] A frequency response curve was determined at the start of each experiment in order to determine the optimum frequency to use as a sub-maximal response, normally 4Hz. […]

conscious male rat = test: Penile intracavernosal pressure in the conscious male rat (telemetry)
Description: In addition to treating women with FSD, bombesin antagonists will be useful in treating male erectile dysfunction (MED. Both the non-selective BB1/2 antagonists (Compound 1; 10mg/kg sc) and the selective BB1 receptor antagonist (Compound 3; 15mg/kg sc) is pro-erectile in a conscious rat model of penile erection (Figures 24 and 25). Erectile responses were recorded by measuring intracavernosal pressure using surgically implanted telemetric device. The specific details the surgical procedures, data acquisition and analysis can be found in detail in Bemabe 1999.
Compound 1 and compound 3 were dissolved in 50% β-cyclodextrin in saline. They were administered at a dose of 15mg/kg subcutaneously (sc). […] These increases equate to penile erection. Both Compounds 1 and 3 induced a number of erections in a similar manner to those observed with apomorphine or melanotan-II - both of which are clinically proven agents that are effective in the treatment of MED. Moreover the amplitude of the increases observed were similar to those observed with apomorphine or melanotan-II. The mechanism of action is thought to be similar to the effects on female genital flow ie CNS potentiation of the descending neuronal pathways that control penile erection.

## COc1ccc(C2(CNC(=O)[C@](C)(Cc3c[nH]c4ccccc34)NC(=O)Nc3ccc([N+](=O)[O-])cc3)CCCCC2)nc1 [Compound (1), (S) 3-(1H-Indol-3-yl)-N-[1-(5-methoxy-pyridin-2-yl)-cyclohexyl-methyl]-2-methyl-2-[3-(4-nitro-phenyl)-ureido]-propionamide]
[1]; Example 1, i.p., dose-dependent 3mg/kg-10mg/kg, 1h before tests, vs vehicle
  percentage of time spent investigating the male stimulus: increased the percentage of time spent investigating the male stimulus
[1]; Example 3, Compound (1) 15mg/kg i.p. 1h before test, progesterone 0.5mg/0.1ml s.c. 4h before, vs vehicle, P<0.01
  proceptivity, day 1: stimulatory effect on proceptivity
[1]; Example 3, repeated daily administration 15mg/kg i.p. over 15 days
  body weight or general behaviour: no changes in body weight or general behaviour
[1]; Example 4, i.c.v., 3-30µg/rat, 10min before tests
  MED (increase in percentage of time spent investigating the male stimulus): 10 µg
[1]; Example 4, i.c.v., dose-dependent 3-30µg/rat, 10min before tests
  percentage of time spent investigating the male stimulus: increased the percentage of time spent investigating the male stimulus
[1]; Example 5, Compound (1) 15mg/kg i.p. 1h before i.c.v. NMB 100ng, blockade not total at this dose
  antagonism of the inhibitory effect of NMB on proceptivity: prevented the inhibitory effect of NMB
[2]; 15mg/kg sc
  basal genital blood flow in the absence of PNS: no effect
[2]; 15mg/kg sc in 50% β-cyclodextrin in saline
  pelvic-nerve stimulated (PNS) increases in genital (vaginal and clitoral) blood flow: potent enhancer
Conscious male rat; Compound 1 10mg/kg sc, Compound 3 15mg/kg sc
  erectile response (penile erection): pro-erectile
Conscious male rat; one hour after 10mg/kg sc Compound 1, 45 minutes after 15mg/kg sc compound 3
  intracavernosal pressure: significant increases in intracavernosal pressure

— patent EP1333824B1, “TREATMENT OF SEXUAL DYSFUNCTION WITH BOMBESIN RECEPTOR ANTAGONISTS” (Warner-Lambert Company LLC, priority 2000, dated 2002)
